Measurements taken from a melting point compilation (Tetko et al.; mined from patent text by program, amines drawn as free bases though some values may be those of a salt).

melting point | Compound
> 250 °C | NS(=O)(=O)c1ccc(NN=C2C(=O)Nc3ccc(S(N)(=O)=O)cc32)cc1
215 to 218 °C | OCc1ccc2nc3c(cc2c1)-c1cccc2cccc-3c12
116 to 117 °C | CON=Cc1cc(=O)c(OCc2ccccc2)c(C(=O)c2ccc(Cc3ccc(F)cc3)o2)o1
172 to 173 °C | CNC(=O)c1cccc(NC(=O)COc2ccccc2Cl)c1
39 to 43 °C | ClCc1cccc(OCc2ccc3ccccc3n2)c1
210 to 212 °C | Cc1ccc([N+](=O)[O-])cc1Nc1nccc(-c2ccc(Cl)nc2)n1
148 to 150 °C | CCn1c(-c2ccc(C(F)(F)F)cc2C(F)(F)F)nc(-c2ccncc2)c1-c1ccc(Cl)cc1
149 °C | Cc1cccc(C)c1NC(=O)CN1CCN(Cc2ccccc2)CC1C(C)O (centres undefined)
177 to 179 °C | COC(=O)c1c(C)nn2c(-c3cccc(C(F)(F)F)c3)ccnc12
138 to 139 °C | CNC(=O)N(O)CCOc1ccc2c(c1)CCN(CCCc1ccccc1)C2=O
35.6 °C | CCCCCCCCOc1ccc(C=[N+]([O-])C(C)(C)C)c(F)c1
193 °C | CC(O)c1sccc1S(=O)(=O)N(C)c1cccc2cc(-c3nccs3)[nH]c12 (centres undefined)
199 to 200 °C | O=C(Nc1ccc(Cl)cc1)N[C@H]1C[C@H](C(=O)O)Nc2cc(Cl)cc(Cl)c21 (relative stereo)
167 to 170 °C | Cc1nc2c3c(c(C(=O)N(C)C)cc2n1C)CCC(c1ccccc1)N3 (centres undefined)
219 to 221 °C | O=C(O)c1cc([N+](=O)[O-])c(-c2ccccc2)c([N+](=O)[O-])c1
165 to 166 °C | O=C(NCC1CC2CCC1C2)n1cc(F)c(=O)[nH]c1=O (centres undefined)
276 to 277 °C | CC(=O)c1ccc(-c2nc(=O)c3ccccc3s2)nc1
243 to 245 °C | Cc1c(NC(=O)c2c(C(=O)N3CCC3)cnn2C)ccn2nc(-c3ccccc3)nc12
157 to 158 °C | O=C1Nc2ncc(Br)cc2C1(Br)Br
258 to 259 °C | O=C(c1ccccc1)c1c(O)c2cc(Cl)cc(Cl)c2[nH]c1=O
253 to 265 °C | O=c1[nH]c2cc([N+](=O)[O-])ccc2n(Cc2ccc(P(=O)(O)O)cc2)c1=O
132 to 134 °C | COc1cc2c(cc1F)OCC21C(=O)N(Cc2ccc(C(F)(F)F)o2)c2ccccc21 (centres undefined)
94 to 98 °C | CC(=O)C(C)Oc1ccc2[nH]c(C)c(C(=O)OCc3ccccc3)c2c1 (centres undefined)

melting point | Compound
239 to 242 °C | CC(C)OC(=O)N1CCC(c2nc3cc(-c4ccc(C(=O)O)cn4)ccc3o2)CC1
238 to 239 °C | COC1CN(C(=O)c2cc(-c3ccccc3)c(=O)n3c2-c2cc(Cl)ccc2CN3)C1
78 to 79 °C | CN(C)NC(=O)N1CCC(Br)C1=O (centres undefined)
183 to 186 °C | CCc1noc(-c2cc3c4cc(N(C)C)ccc4n(CCCCl)c3cn2)n1
131 to 133 °C | CC(C)c1nc(C(C)C)c(CNC2CCCCC2)c(-c2ccc(F)cc2)c1CO
143 to 144 °C | O=C(CCc1cccnc1)NCCCCC1CCN(C(=O)Nc2cccc3ccccc23)CC1
180 to 182 °C | CC1(C)NC(=O)N(CC(CS(=O)(=O)c2ccc(-c3ccc(C(F)(F)F)cc3)cc2)N(O)C=O)C1=O (centres undefined)
218 to 220 °C | CCc1cc(C(=O)c2ccccc2Cl)c(-n2cnnc2CNC(=O)c2cc3ccccc3n2CC(=O)O)s1
197 to 198 °C | Cc1nccn1-c1nc(-c2ccc(Cl)cc2)c(CCCN2C(=O)CNC2=O)o1
181 to 183 °C | O=C1Cc2ccccc2-c2cc(-c3ccccc3)nn21
148 to 155 °C | O=C(O)COc1cccc(Cn2cc(C3c4ccccc4C=Cc4ccccc43)c(=S)[nH]c2=O)c1
99 to 100 °C | Cc1c2n(c3ccccc13)C(=O)C(Cc1cn(C)cn1)CC2 (centres undefined)
189 to 190 °C | CC(=O)OC1CSC(Oc2ccc(-c3cncc(C)c3)nc2)C(OC(C)=O)C1OC(C)=O (centres undefined)
150 to 151 °C | CC(Oc1cc(-c2nn(C)c(C(F)(F)F)c2Cl)c(F)cc1Cl)C(=O)O (centres undefined)
63 to 65 °C | CS(=O)(=O)Nc1c(Br)cnn1-c1ccc(C(F)(F)F)cc1Cl
59 to 61 °C | CC1(C)COC(C(C)(C)Oc2ccc(Cl)cc2)=N1
125 to 127 °C | COc1ccc(Cl)cc1C(=O)NCCc1ccc(C(C)CC(=O)O)cc1 (centres undefined)
184 °C | N[C@@H]1CCCN([C@@H]2Cc3ccccc3[C@H]2Oc2cc3c(cc2Cl)NC(=O)CC3)C1
129 to 132 °C | CC(C)c1cc(C(C)C)c(CC(=O)c2ccc(-c3ccccc3)c(OS(N)(=O)=O)c2-c2ccccc2)c(C(C)C)c1
165 °C | Cn1c(=O)c(-c2ccccc2)nc2cc3c(cc21)OC(F)(F)O3
188 to 192 °C | O=C(O)CC1(c2ccc(Cl)cc2Cl)CNC(=O)C1 (centres undefined)
96.5 to 97.5 °C | O=C1c2cccc3cccc(c23)C(=O)N1CCCCCO
108 to 110 °C | C[Si](C)(C)c1c(C#N)c(C(F)(F)F)nn1-c1c(Cl)cc(C(F)(F)F)cc1Cl

melting point | Compound
103 to 118 °C | OCC1OC(n2cnc3c(NCCC(c4ccccc4)c4ccccc4)ncnc32)C(O)C1O (centres undefined)
136 to 138 °C | O=[N+]([O-])c1cccc2c1nnn2SC(Cl)(Cl)Cl
156 to 157 °C | CC(C)CCN1C(=O)C(NC(=O)Nc2ccccc2)C(=O)N(CC23CC4CC(CC(C4)C2)C3)c2ccccc21 (centres undefined)
104 °C | COC1C(O)C(COC(c2ccccc2)(c2ccccc2)c2ccccc2)OC(Oc2ccc([N+](=O)[O-])cc2)C1O (centres undefined)
184 °C | CC(=O)OC1CSC(Oc2cncc(-c3ccco3)c2)C(OC(C)=O)C1OC(C)=O (centres undefined)
115 to 117 °C | CC(=NOC(=O)Nc1ccccc1)C(C)N(C(=O)CCl)c1c(C)cccc1C (centres undefined)
263 to 267 °C | O=C1NC(=O)c2c1c(-c1ccccc1Cl)cc1c2c2cc(O)ccc2n1CCC(O)CO (centres undefined)
135 to 136 °C | CC(C)(C)C(=O)C=C(c1ccc(Cl)cc1)S(=O)(=O)c1ccccc1
206 to 209 °C | N=C(N)Nc1nc2ccc(C(F)(F)F)cc2[nH]1
115 to 116 °C | CCOC(=O)N1CCN(c2c(-c3ccccc3)sc3ccccc23)CC1
126 to 127 °C | O=C1c2ccccc2C(=O)N1CCCS(=O)(=O)c1ccccc1
93 to 97 °C | COC1(OC)CCC(O)(c2ccc(C)cc2)CC1
117 to 119 °C | c1cncc(-c2cnc3ccccc3c2)c1
139 to 140 °C | COc1ccc(S(=O)(=O)O)cc1OC(=O)c1ccccc1
121 °C | O=S(=O)(c1ccc(Cl)cc1)N1CCCC1c1ccc(F)c(F)c1 (racemic)
148 to 150 °C | Cc1ncoc1C(=O)Nc1ccc(-n2nc(C(F)(F)F)cc2C2CC2)c(F)c1
174 to 176 °C | CS(=O)(=O)Nc1ccc(F)c(C(=O)C[N+](=O)[O-])c1
202 to 203 °C | COc1cc2c(Nc3ccc(Cl)cc3F)ncnc2cc1OCCN1C(=O)CCCC1=O
217 to 218 °C | Cc1cc(C)c(Nc2ccnc(Nc3ccc(C#N)cc3)n2)c(C)c1
91 °C | CCOC(=O)CC(=O)Nc1cccc(F)c1CO
179 °C | O=C(c1cc(Br)cc(Br)c1O)c1cc(Br)cc(Br)c1O
49 to 50 °C | CCOC(=O)OCC(I)=C(I)I
39 to 39.5 °C | Cc1ccc(S(=O)(=O)OCCc2ccccc2Br)cc1

melting point | Compound
225 to 227 °C | Oc1ccc(-c2nc(Br)c[nH]2)cc1Cl
141 to 142 °C | CN(C)CCn1c(=O)[nH]c2cccnc21
170 °C | COc1ccccc1-c1nc(N)ncc1-c1ccc(=O)n(C(C)C)n1
201 to 204 °C | CCN(CCO)CCCNc1ncc2cc(-c3c(Cl)cccc3Cl)c(N)nc2n1
170 to 171 °C | CCOC(N)=C(C#N)C(N)=S
187 to 189 °C | COc1cccc(OC2COc3ccc(O)cc3C2O)c1 (centres undefined)
163 to 166 °C | COc1cc(C)nc(NC(=O)NS(=O)(=O)C2=CCCCC2)n1
110 to 112 °C | Nc1c(Cl)cc(CO)cc1Cl
80 to 81 °C | CC(C)=CCOc1c(I)cc(C(C)O)nc1Cl (centres undefined)
146 to 149 °C | COc1cccc(-c2ccc(N3CCCN(c4ccc(-c5cccc(OC)c5)cn4)CC3)nc2)c1
172 to 173 °C | Cc1cccc(C)c1NCc1nnc(S)n1C
230 to 232 °C | O=C(O)CC1(CC(=O)O)c2ccccc2C(=O)c2ccccc21
147 to 148 °C | COc1cc(COc2nn(-c3ccccc3)cc2CC(=O)O)ccc1OCc1nc(-c2ccccc2)oc1C
141 to 143 °C | CS(=O)(=O)Nc1ccccc1NC1=CC=NC(Nc2ccc3c(c2)CNCCS3)N1Cl (centres undefined)
218 to 220 °C | Cc1ccccc1CN1CCC(n2c(C)c(-c3ccccc3)[nH]c2=O)CC1
55 to 60 °C | COc1sc(C)c(CO)c1C
85 to 86 °C | C=CCOC(=O)c1c(C)nc2c(cnn2CCC(C)CC)c1N (centres undefined)
74 to 76 °C | O=C(OCc1ccccc1)C(C(=O)OCc1ccccc1)n1cccc1C(=O)C(Cl)(Cl)Cl
150 to 158 °C | COc1ccc(Nc2nc(NC3CCCCCC3)nc(Oc3ccccc3C#CC(C)(C)O)n2)cc1Cl
62 °C | COC(=O)C(C)c1ccc(C(=O)c2cccs2)cc1 (centres undefined)
240 °C | Cc1ccc(C=CC(=O)N2CCc3c([nH]c4ccccc34)C2c2ccc3c(c2)OCO3)cc1 (centres undefined)

Compound | melting point
Nc1nc(SSc2n[nH]c(N)n2)n[nH]1 | 250 to 256 °C
CC12CC(=O)C3C(CCC4CC(O)CCC43C)C1CCC2C(=O)COc1ccc(N)cc1 (centres undefined) | 179 to 180 °C
CN1CCC(N(C)c2n[nH]c(-c3ccc(Cl)cc3)c2-c2ccncc2)CC1 | 260 to 261 °C
CC(C)P1(=O)c2ccccc2CN1C (centres undefined) | 72 to 74 °C
